# Measured values from PubChem BioAssay (NCI).
# Where “and” joins values, the source holds several entries; their conditions need not be identical. Identical values can stand only once.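 Exposure lasted 48 hours, with cells grown in 96-well plates and compounds tested at five concentrations. GI50 = concentration required for 50% inhibition of growth. At the TGI there is no net growth.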
# Test system: ACHN renal
# Experiment: NCI-60 cell line screen, 48 h
SMILES,TGI,GI50
O=c1c(Cl)c(Cl)cnn1-c1ccccc1,11.6 µM and 13.5 µM,–
O=C(O)Cc1c[nH]c2ccc(F)cc12,> 100 µM,–
CC[n+]1ccc2c(c1)C(=O)c1nccc3c1c-2nc1ccccc13,> 15.5 µM,1.13 µM
OC(c1cccc(C(F)(F)F)c1)c1cnccc1NC1CCCCCC1 (stereo unspecified),3.24 µM,1.69 µM
N#Cc1c(O)c2c(c(O)c1C#N)C(=O)c1ccccc1C2=O,9.96 µM,2.72 µM
O=C1CSC(N2CCN(c3cccc(Cl)c3)CC2)=N1,> 100 µM,> 100 µM
CN(C)CCNc1nc2ccccc2c2[nH]c3ccccc3c12,1.21 µM,0.19 µM
Cc1c(N2C(=O)/C(=C\c3ccccc3O)N=C2c2ccccc2)c(=O)n(-c2ccccc2)n1C,> 100 µM,53.8 µM
CNC(=O)c1cc(Oc2ccc3c(c2)sc2nc(-c4ccc(N)cc4)cn23)ccn1,> 100 µM,0.75 µM
CN(C)S(=O)(=O)Nc1ccccn1,> 100 µM,–

# Test system: EKVX NSCLC
# Experiment: NCI-60 cell line screen, 48 h
SMILES,GI50,TGI
O=c1c(Cl)c(Cl)cnn1-c1ccccc1,5.44 µM and 15.4 µM,10.5 µM and 33.4 µM
O=C(O)Cc1c[nH]c2ccc(F)cc12,–,> 100 µM
CC[n+]1ccc2c(c1)C(=O)c1nccc3c1c-2nc1ccccc13,3.53 µM,8.92 µM
OC(c1cccc(C(F)(F)F)c1)c1cnccc1NC1CCCCCC1 (stereo unspecified),1.98 µM,4.68 µM
N#Cc1c(O)c2c(c(O)c1C#N)C(=O)c1ccccc1C2=O,3.07 µM,26.1 µM
O=C1CSC(N2CCN(c3cccc(Cl)c3)CC2)=N1,> 100 µM,> 100 µM
CN(C)CCNc1nc2ccccc2c2[nH]c3ccccc3c12,1.7 µM,14.3 µM
Cc1c(N2C(=O)/C(=C\c3ccccc3O)N=C2c2ccccc2)c(=O)n(-c2ccccc2)n1C,77 µM,> 100 µM
CNC(=O)c1cc(Oc2ccc3c(c2)sc2nc(-c4ccc(N)cc4)cn23)ccn1,0.458 µM,> 100 µM
CN(C)S(=O)(=O)Nc1ccccn1,–,> 100 µM

# Test system: MCF7 breast
# Experiment: NCI-60 cell line screen, 48 h
SMILES,TGI,GI50
O=c1c(Cl)c(Cl)cnn1-c1ccccc1,18.9 µM and 13.6 µM,–
O=C(O)Cc1c[nH]c2ccc(F)cc12,> 100 µM,–
CC[n+]1ccc2c(c1)C(=O)c1nccc3c1c-2nc1ccccc13,4.84 µM,0.587 µM
OC(c1cccc(C(F)(F)F)c1)c1cnccc1NC1CCCCCC1 (stereo unspecified),3.51 µM,1.66 µM
N#Cc1c(O)c2c(c(O)c1C#N)C(=O)c1ccccc1C2=O,3.76 µM,1.46 µM
O=C1CSC(N2CCN(c3cccc(Cl)c3)CC2)=N1,> 100 µM,> 100 µM
CN(C)CCNc1nc2ccccc2c2[nH]c3ccccc3c12,0.941 µM,0.129 µM
Cc1c(N2C(=O)/C(=C\c3ccccc3O)N=C2c2ccccc2)c(=O)n(-c2ccccc2)n1C,> 100 µM,3.83 µM
CNC(=O)c1cc(Oc2ccc3c(c2)sc2nc(-c4ccc(N)cc4)cn23)ccn1,> 100 µM,0.128 µM
CN(C)S(=O)(=O)Nc1ccccn1,> 100 µM,–

# Test system: OVCAR-3 ovarian
# Experiment: NCI-60 cell line screen, 48 h
SMILES,TGI,GI50
O=c1c(Cl)c(Cl)cnn1-c1ccccc1,4.22 µM and 3.94 µM,–
O=C(O)Cc1c[nH]c2ccc(F)cc12,> 100 µM,–
CC[n+]1ccc2c(c1)C(=O)c1nccc3c1c-2nc1ccccc13,2.92 µM,0.783 µM
OC(c1cccc(C(F)(F)F)c1)c1cnccc1NC1CCCCCC1 (stereo unspecified),6.23 µM,2.35 µM
N#Cc1c(O)c2c(c(O)c1C#N)C(=O)c1ccccc1C2=O,2.94 µM,0.745 µM
O=C1CSC(N2CCN(c3cccc(Cl)c3)CC2)=N1,> 100 µM,> 100 µM
CN(C)CCNc1nc2ccccc2c2[nH]c3ccccc3c12,2.01 µM,0.438 µM
Cc1c(N2C(=O)/C(=C\c3ccccc3O)N=C2c2ccccc2)c(=O)n(-c2ccccc2)n1C,> 100 µM,> 100 µM
CNC(=O)c1cc(Oc2ccc3c(c2)sc2nc(-c4ccc(N)cc4)cn23)ccn1,0.67 µM,0.198 µM
CN(C)S(=O)(=O)Nc1ccccn1,> 100 µM,–

# Test system: OVCAR-5 ovarian
# Experiment: NCI-60 cell line screen, 48 h
SMILES,GI50,TGI
O=c1c(Cl)c(Cl)cnn1-c1ccccc1,19.7 µM and 9.53 µM,38.8 µM and 19.8 µM
O=C(O)Cc1c[nH]c2ccc(F)cc12,–,> 100 µM
CC[n+]1ccc2c(c1)C(=O)c1nccc3c1c-2nc1ccccc13,6.88 µM,19.4 µM
OC(c1cccc(C(F)(F)F)c1)c1cnccc1NC1CCCCCC1 (stereo unspecified),1.7 µM,3.76 µM
N#Cc1c(O)c2c(c(O)c1C#N)C(=O)c1ccccc1C2=O,3.35 µM,8.74 µM
O=C1CSC(N2CCN(c3cccc(Cl)c3)CC2)=N1,> 100 µM,> 100 µM
CN(C)CCNc1nc2ccccc2c2[nH]c3ccccc3c12,1.56 µM,21.9 µM
Cc1c(N2C(=O)/C(=C\c3ccccc3O)N=C2c2ccccc2)c(=O)n(-c2ccccc2)n1C,> 100 µM,> 100 µM
CNC(=O)c1cc(Oc2ccc3c(c2)sc2nc(-c4ccc(N)cc4)cn23)ccn1,–,> 100 µM
CN(C)S(=O)(=O)Nc1ccccn1,–,> 100 µM
